Results: ChEMBL document CHEMBL1136606, “Design and synthesis of bicyclic pyrimidinone-based HCV NS3 protease inhibitors” (Bioorg Med Chem Lett, 2003)

Target: NS3 (Hepatitis C virus, UniProt A3EZJ3)
Assay: Inhibitory activity hepatitis C virus NS3 protease.
Parameters: species or system Hepacivirus hominis

Chain of NS3 (A3EZJ3 whole entry): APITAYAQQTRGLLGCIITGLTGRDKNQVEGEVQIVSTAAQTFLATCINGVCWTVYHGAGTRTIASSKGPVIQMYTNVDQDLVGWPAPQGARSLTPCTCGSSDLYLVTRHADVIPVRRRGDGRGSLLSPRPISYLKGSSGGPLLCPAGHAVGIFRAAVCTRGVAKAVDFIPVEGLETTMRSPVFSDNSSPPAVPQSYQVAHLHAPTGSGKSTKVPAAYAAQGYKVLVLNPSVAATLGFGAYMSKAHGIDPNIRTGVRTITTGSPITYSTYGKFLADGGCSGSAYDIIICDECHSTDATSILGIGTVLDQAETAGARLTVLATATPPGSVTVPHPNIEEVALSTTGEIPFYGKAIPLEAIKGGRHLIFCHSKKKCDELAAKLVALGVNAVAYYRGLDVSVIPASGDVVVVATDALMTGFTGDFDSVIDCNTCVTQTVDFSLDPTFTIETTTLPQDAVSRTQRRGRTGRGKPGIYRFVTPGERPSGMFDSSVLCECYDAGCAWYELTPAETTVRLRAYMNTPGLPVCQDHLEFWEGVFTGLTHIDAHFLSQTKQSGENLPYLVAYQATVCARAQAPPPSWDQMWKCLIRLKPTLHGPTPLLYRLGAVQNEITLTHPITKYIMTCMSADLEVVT

Row | Compound | IC50 [nM]
1 | CC[C@H](NC(=O)[C@@H]1C[C@@](C)(NC(=O)Nc2cccc(C(=O)OC)c2)c2ncc(NCc3cccc(C(F)(F)F)c3)c(=O)n21)B1OC2C3CC(C[C@]2(C)O1)C3(C)C (some centres not stated) | 1770
2 | CC[C@H](NC(=O)[C@@H]1C[C@@](C)(CC(=O)Nc2ccccc2)c2ncc(NCc3cccc(C(F)(F)F)c3)c(=O)n21)B1OC2C3CC(C[C@]2(C)O1)C3(C)C (some centres not stated) | 170
3 | CC[C@H](NC(=O)[C@@H]1C[C@@](C)(NC(=O)Nc2ccccc2OC)c2ncc(NCc3cccc(C(F)(F)F)c3)c(=O)n21)B1OC2C3CC(C[C@]2(C)O1)C3(C)C (some centres not stated) | 360
4 | CC[C@H](NC(=O)[C@@H]1C[C@@](C)(NC(=O)NCc2ccccc2)c2ncc(NCc3cccc(C(F)(F)F)c3)c(=O)n21)B1OC2C3CC(C[C@]2(C)O1)C3(C)C (some centres not stated) | 1200
5 | CC[C@H](NC(=O)[C@@H]1C[C@@](C)(NC(=O)Cc2ccccc2)c2ncc(NCc3cccc(C(F)(F)F)c3)c(=O)n21)B1OC2C3CC(C[C@]2(C)O1)C3(C)C (some centres not stated) | 2400
6 | CC[C@H](NC(=O)[C@@H]1C[C@@](C)(NC(=O)Nc2ccc(Cl)cc2)c2ncc(NCc3cccc(C(F)(F)F)c3)c(=O)n21)B1OC2C3CC(C[C@]2(C)O1)C3(C)C (some centres not stated) | 1100
7 | CC[C@H](NC(=O)[C@@H]1C[C@@](C)(NC(=O)Nc2ccccc2C(=O)O)c2ncc(NCc3cccc(C(F)(F)F)c3)c(=O)n21)B1OC2C3CC(C[C@]2(C)O1)C3(C)C (some centres not stated) | 6400
8 | CC[C@H](NC(=O)[C@@H]1C[C@@](C)(CC(=O)Nc2nccc3ccccc23)c2ncc(NCc3cccc(C(F)(F)F)c3)c(=O)n21)B1OC2C3CC(C[C@]2(C)O1)C3(C)C (some centres not stated) | 440
9 | CC[C@H](NC(=O)[C@@H]1C[C@@](C)(CC(=O)Nc2ccccc2C(=O)OC)c2ncc(NCc3cccc(C(F)(F)F)c3)c(=O)n21)B1OC2C3CC(C[C@]2(C)O1)C3(C)C (some centres not stated) | 100
10 | CC[C@H](NC(=O)[C@@H]1C[C@@](C)(CC(=O)Nc2cccc3ccccc23)c2ncc(NCc3cccc(C(F)(F)F)c3)c(=O)n21)B1OC2C3CC(C[C@]2(C)O1)C3(C)C (some centres not stated) | 170
11 | CC[C@H](NC(=O)[C@@H]1C[C@@](C)(NC(=O)Nc2ccc(Oc3ccccc3)cc2)c2ncc(NCc3cccc(C(F)(F)F)c3)c(=O)n21)B1OC2C3CC(C[C@]2(C)O1)C3(C)C (some centres not stated) | 4740
12 | CC[C@H](NC(=O)[C@@H]1C[C@@](C)(NC(=O)Nc2cccc3ccccc23)c2ncc(NCc3cccc(C(F)(F)F)c3)c(=O)n21)B1OC2C3CC(C[C@]2(C)O1)C3(C)C (some centres not stated) | 270
13 | CC[C@H](NC(=O)[C@@H]1C[C@@](C)(NC(=O)Nc2cccc(F)c2)c2ncc(NCc3cccc(C(F)(F)F)c3)c(=O)n21)B1OC2C3CC(C[C@]2(C)O1)C3(C)C (some centres not stated) | 500
14 | CC[C@H](NC(=O)[C@@H]1C[C@@](C)(CC(=O)Nc2ccccc2C(N)=O)c2ncc(NCc3cccc(C(F)(F)F)c3)c(=O)n21)B1OC2C3CC(C[C@]2(C)O1)C3(C)C (some centres not stated) | 150
15 | CC[C@H](NC(=O)[C@@H]1C[C@@](C)(NC(=O)Nc2ccccc2)c2ncc(NCc3cccc(C(F)(F)F)c3)c(=O)n21)B1OC2C3CC(C[C@]2(C)O1)C3(C)C (some centres not stated) | 790
16 | CC[C@H](NC(=O)[C@@H]1C[C@@](C)(NC(=O)Nc2ccc(SC)cc2)c2ncc(NCc3cccc(C(F)(F)F)c3)c(=O)n21)B1OC2C3CC(C[C@]2(C)O1)C3(C)C (some centres not stated) | 2360
17 | CCOC(=O)c1cccc(NC(=O)N[C@]2(C)C[C@@H](C(=O)N[C@@H](CC)B3OC4C5CC(C[C@]4(C)O3)C5(C)C)n3c2ncc(NCc2cccc(C(F)(F)F)c2)c3=O)c1 (some centres not stated) | 1550
18 | CCOC(=O)c1ccccc1NC(=O)N[C@]1(C)C[C@@H](C(=O)N[C@@H](CC)B2OC3C4CC(C[C@]3(C)O2)C4(C)C)n2c1ncc(NCc1cccc(C(F)(F)F)c1)c2=O (some centres not stated) | 100
19 | CC[C@H](NC(=O)[C@@H]1C[C@@](C)(NC(=O)Oc2ccccc2)c2ncc(NCc3cccc(C(F)(F)F)c3)c(=O)n21)B1OC2C3CC(C[C@]2(C)O1)C3(C)C (some centres not stated) | 1400

Row | Compound | IC50 [nM]
20 | CC[C@H](NC(=O)[C@@H]1C[C@@](C)(CC(=O)Nc2ccccc2C(=O)NC)c2ncc(NCc3cccc(C(F)(F)F)c3)c(=O)n21)B1OC2C3CC(C[C@]2(C)O1)C3(C)C (some centres not stated) | 180
21 | CCOC(=O)c1ccc(NC(=O)N[C@]2(C)C[C@@H](C(=O)N[C@@H](CC)B3OC4C5CC(C[C@]4(C)O3)C5(C)C)n3c2ncc(NCc2cccc(C(F)(F)F)c2)c3=O)cc1 (some centres not stated) | 1100
22 | CC[C@H](NC(=O)[C@@H]1C[C@@](C)(NC(=O)Nc2ccccc2-c2ccccc2)c2ncc(NCc3cccc(C(F)(F)F)c3)c(=O)n21)B1OC2C3CC(C[C@]2(C)O1)C3(C)C (some centres not stated) | 30000
23 | CC[C@H](NC(=O)[C@@H]1C[C@@](C)(NC(=O)Nc2ccccc2C)c2ncc(NCc3cccc(C(F)(F)F)c3)c(=O)n21)B1OC2C3CC(C[C@]2(C)O1)C3(C)C (some centres not stated) | 780
24 | CC[C@H](NC(=O)[C@@H]1C[C@@](C)(NC(=O)Nc2ccccc2C(=O)OC)c2ncc(NCc3cccc(C(F)(F)F)c3)c(=O)n21)B1OC2C3CC(C[C@]2(C)O1)C3(C)C (some centres not stated) | 80
25 | CC[C@H](NC(=O)[C@@H]1C[C@@](C)(CC(=O)Nc2ccccc2C(=O)N(C)C)c2ncc(NCc3cccc(C(F)(F)F)c3)c(=O)n21)B1OC2C3CC(C[C@]2(C)O1)C3(C)C (some centres not stated) | 1460
26 | CC[C@H](NC(=O)[C@@H]1C[C@@](C)(CC(=O)Nc2cccc(SC)c2)c2ncc(NCc3cccc(C(F)(F)F)c3)c(=O)n21)B1OC2C3CC(C[C@]2(C)O1)C3(C)C (some centres not stated) | 90
27 | CC[C@H](NC(=O)[C@@H]1C[C@@](C)(CC(=O)Nc2ccccc2OC)c2ncc(NCc3cccc(C(F)(F)F)c3)c(=O)n21)B1OC2C3CC(C[C@]2(C)O1)C3(C)C (some centres not stated) | 200
28 | CC[C@H](NC(=O)[C@@H]1C[C@@](C)(NC(=O)Nc2cccc(SC)c2)c2ncc(NCc3cccc(C(F)(F)F)c3)c(=O)n21)B1OC2C3CC(C[C@]2(C)O1)C3(C)C (some centres not stated) | 130
29 | CCOc1ccccc1NC(=O)N[C@]1(C)C[C@@H](C(=O)N[C@@H](CC)B2OC3C4CC(C[C@]3(C)O2)C4(C)C)n2c1ncc(NCc1cccc(C(F)(F)F)c1)c2=O (some centres not stated) | 160
30 | CC[C@H](NC(=O)[C@@H]1C[C@@](C)(NC(=O)Nc2ccccc2Oc2ccccc2)c2ncc(NCc3cccc(C(F)(F)F)c3)c(=O)n21)B1OC2C3CC(C[C@]2(C)O1)C3(C)C (some centres not stated) | 300
31 | CC[C@H](NC(=O)[C@@H]1C[C@@](C)(NC(=O)Nc2ccccc2SC)c2ncc(NCc3cccc(C(F)(F)F)c3)c(=O)n21)B1OC2C3CC(C[C@]2(C)O1)C3(C)C (some centres not stated) | 710
32 | CC[C@H](NC(=O)[C@@H]1C[C@@](C)(NC(=O)Nc2ccccc2Cl)c2ncc(NCc3cccc(C(F)(F)F)c3)c(=O)n21)B1OC2C3CC(C[C@]2(C)O1)C3(C)C (some centres not stated) | 370
33 | CC[C@H](NC(=O)[C@@H]1C[C@@](C)(NC(=O)Nc2ccc(F)cc2)c2ncc(NCc3cccc(C(F)(F)F)c3)c(=O)n21)B1OC2C3CC(C[C@]2(C)O1)C3(C)C (some centres not stated) | 1030
34 | CC[C@H](NC(=O)[C@@H]1C[C@@](C)(NC(=O)c2ccccc2)c2ncc(NCc3cccc(C(F)(F)F)c3)c(=O)n21)B1OC2C3CC(C[C@]2(C)O1)C3(C)C (some centres not stated) | 3400
35 | CC[C@H](NC(=O)[C@@H]1CCc2ncc(NCc3cccc(C(F)(F)F)c3)c(=O)n21)B1OC2C3CC(C[C@]2(C)O1)C3(C)C (some centres not stated) | 7000
36 | CC[C@H](NC(=O)[C@@H]1C[C@@](C)(NC(=O)Nc2ccccc2[N+](=O)[O-])c2ncc(NCc3cccc(C(F)(F)F)c3)c(=O)n21)B1OC2C3CC(C[C@]2(C)O1)C3(C)C (some centres not stated) | 180
37 | CC[C@H](NC(=O)[C@@H]1C[C@@](C)(CC(=O)Nc2ccccc2[N+](=O)[O-])c2ncc(NCc3cccc(C(F)(F)F)c3)c(=O)n21)B1OC2C3CC(C[C@]2(C)O1)C3(C)C (some centres not stated) | 2530
